In patent publication US20190374526A1, “Substituted Heterocyclic Compounds as Inhibitors of PRDM9” (Merck Sharp & Dohme Corp., priority 2018, published 2019):

target: T1, hPRDM9 (amino acids 195-385) (Homo sapiens, UniProt Q9NQV7); experiment: PRDM9 biochemical assay (radiometric, 3[H] methyl transfer from SAM to biotinylated histone H3 peptide); settings: 1 nM hPRDM9, 1 μM biotinylated H3(1-25)K4 peptide, 5 μM 3[H]-SAM, 55 μM un-labeled SAM, 25° C., 30 minutes
T1 construct: 1.25 nM hPRDM9 (amino acids 195-385)
T1 sequence (Q9NQV7 195-385): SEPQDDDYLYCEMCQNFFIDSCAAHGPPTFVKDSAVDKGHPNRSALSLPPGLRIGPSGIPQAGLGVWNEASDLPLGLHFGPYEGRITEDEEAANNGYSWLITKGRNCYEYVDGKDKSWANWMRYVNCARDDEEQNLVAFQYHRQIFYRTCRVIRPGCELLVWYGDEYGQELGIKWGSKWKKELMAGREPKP
Procedure: The PRDM9 biochemical assay was carried out using a radiometric format involving the transfer of ^3[H] methyl group from S-adenosyl methionine (SAM) to a biotinylated histone H3 peptide (H3(1-25)K4). 10 mM compounds in DMSO were diluted 20 fold in assay buffer (10 mM Tris-HCl, pH 8.5, 10 mM DTT, and 0.01% Triton X-100) before adding […] to a well in a 384 well polypropylene microplate plate and adding 8 μl of reaction mix (1.25 nM hPRDM9 (amino acids 195-385), 1.25 μM biotinylated H3 peptide in assay buffer). The ^3[H]-SAM and cold SAM stock solutions were diluted to 50 μM and 550 μM respectively in assay buffer before aliquoting 1 μl of 50 μM ^3[H]-SAM, 550 μM SAM into each well to initiate the reaction. The assay was performed at 25° C. at the final concentrations of 1 nM hPRDM9, 1 μM peptide, 5 μM ^3[H]-SAM, and 55 μM un-labeled SAM in assay buffer. The reaction was quenched after 30 minutes by adding 25 μl 7.5 M Guanidine-HCl. Quenched reactions were transferred to streptavidin coated Flashplates, diluted two fold in assay buffer, incubated for 1 hour, and read on a Perkin Elmer Topcount instrument. Compound activity was expressed relative to activity of 0.5% (v/v) DMSO treated samples and fit to a four parameter logistic equation to determine IC50 values.

SMILES	IC50
Cc1cc(N2CC3(CCCN(C(=O)Nc4cc(Cl)cc(Cl)c4)C3)C2)ccn1 [Compound 240]	≥ 50000 nM
Cc1cc(NC2CCC3CN(c4nc(-c5cc(Cl)cc(Cl)c5)no4)CC3C2)ccn1 (stereo not shown) [Compound 66]	470 nM
COc1cccc(-c2noc(N3CCOC(CCNc4ccnc(C)c4)C3)n2)c1 (stereo not shown) [Compound 169]	2000 nM
COc1cc(OC)cc(-c2noc(N3CC(C)(C)OC4(CN(c5ccnc(C)c5)C4)C3)n2)c1 [Compound 163]	3080 nM
Cc1cc(NC2CC3(CCN(c4nc(-c5cc(Cl)cc(Cl)c5)no4)C3)C2)ccn1 (stereo not shown) [Compound 155]	3460 nM
Cc1cc(N2CCC(C)(Nc3nc(-c4cc(Cl)cc(Cl)c4)no3)C2)ccn1 (stereo not shown) [Compound 211]	24000 nM
Clc1cc(Cl)cc(-c2noc(N3CCCC4(CN(c5cnccn5)C4)C3)n2)c1 [Compound 202]	2000 nM
COc1cc(CN)cc(-c2noc(N3CCN(C)C4(CCN(c5ccnc(C)c5)CC4)C3)n2)c1 [Compound 243, (3-methoxy-5-(5-(1-methyl-9-(2-methylpyridin-4-yl)-1,4,9-triazaspiro[5.5]undecan-4-yl)-1,2,4-oxadiazol-3-yl)phenyl)methanamine]	103 nM
Cc1cc(N2CCC3(CC2)CCN(c2nc(-c4cc(Cl)cc(Cl)c4)no2)C3)ccn1 [Compound 214]	464 nM
Cc1cc(N2CC3CN(c4nc(-c5cc(Cl)cc(Cl)c5)no4)CC3C2)ccn1 (stereo not shown) [Compound 45]	340 nM
Cc1cc(N2CCC(C3CCCN(c4nc(-c5cc(Cl)cc(Cl)c5)no4)C3)CC2)ccn1 (stereo not shown) [Compound 6]	11300 nM
Cc1cc(N2CCCC3(CCN3c3nc(-c4cc(Cl)cc(Cl)c4)no3)C2)ccn1 (stereo not shown) [Compound 231]	37300 nM
Cc1cc(N2CCC3(CCN(c4nc(-c5cc(Cl)cc(Cl)c5)no4)CC3)C2)ccn1 [Compound 20]	7790 nM
Cc1cc(N2CCC3CN(c4nc(-c5cc(Cl)cc(Cl)c5)no4)CCC32)ccn1 (stereo not shown) [Compound 71]	27700 nM
Cc1cc(N2CC3(CCCN(c4ccn(-c5cc(Cl)cc(Cl)c5)n4)C3)C2)ccn1 [Compound 126, 6-(1-(3,5-dichlorophenyl)-1H-pyrazol-3-yl)-2-(2-methylpyridin-4-yl)-2,6-diazaspiro[3.5]nonane]	11100 nM
COc1ccccc1-c1c(-c2cc(Cl)cc(Cl)c2)noc1N1CCCC2(CN(c3ccnc(C)c3)C2)C1 [Compound 124]	17600 nM
Cc1cc(NC[C@H]2CCN(c3nc(-c4cc(Cl)cc(Cl)c4)no3)C2)ccn1 [Compound 81]	13300 nM
COc1cc(C(N)=O)cc(-c2noc(N3CCN(C)C4(CCN(c5ccnc(C)c5)CC4)C3)n2)c1 [Compound 246, 3-methoxy-5-(5-(1-methyl-9-(2-methylpyridin-4-yl)-1,4,9-triazaspiro[5.5]undecan-4-yl)-1,2,4-oxadiazol-3-yl)benzamide]	83 nM
Cc1cc(NCC(F)CNc2nc(-c3cc(Cl)cc(Cl)c3)no2)ccn1 (stereo not shown) [Compound 43]	13300 nM
COc1cc(CN(C)C)cc(-c2noc(N3CCN(C)C4(CCN(c5ccnc(C)c5)CC4)C3)n2)c1 [Compound 244, 1-(3-methoxy-5-(5-(1-methyl-9-(2-methylpyridin-4-yl)-1,4,9-triazaspiro[5.5]undecan-4-yl)-1,2,4-oxadiazol-3-yl)phenyl)-N,N-dimethylmethanamine]	131 nM

SMILES	IC50
Cc1cc(N2CCC3(CCC(=O)N(c4nc(-c5cc(Cl)cc(Cl)c5)no4)C3)CC2)ccn1 [Compound 28]	22.5 nM
COc1cccc(-c2noc(N3CCOC4(CCN(c5ccnc(C)c5)CC4)C3)n2)c1 [Compound 166]	800 nM
COc1cc(OC)cc(-c2noc(N3Cc4ccccc4C4(CCN(c5ccnc(C)c5)CC4)C3)n2)c1 [Compound 180]	80 nM
Cc1cc(NCC2CN(c3nc(-c4cc(Cl)cc(Cl)c4)no3)C2)ccn1 [Compound 49]	40200 nM
Cc1cc(N2CC(CCNc3nc(-c4cc(Cl)cc(Cl)c4)no3)C2)ccn1 [Compound 52]	29400 nM
Cc1cc(NCC2CN(c3nc(-c4cc(Cl)cc(Cl)c4)no3)CCC2C)ccn1 (stereo not shown) [Compound 174]	1580 nM
COc1cc(OC)cc(-c2noc(N3CCN(C)C4(CCN(c5ccnc(C)c5)CC4)C3)n2)c1 [Compound 161]	49 nM
Cc1cc(N[C@@H]2[C@@H](O)CN(c3nc(-c4cc(Cl)cc(Cl)c4)no3)[C@H]2C)ccn1 (racemic) [Compound 29]	13300 nM
Cc1cc(N2CC3(CCCN(c4nc(-c5cccc(Cl)c5)no4)C3)C2)ccn1 [Compound 147]	263 nM
Cc1cc(N2CC3(C2)CN(c2nc(-c4cc(Cl)cc(Cl)c4)no2)CCO3)ccn1 [Compound 119]	300 nM
Cc1cc(N2CC3(CCCN(c4nc(-c5cc(Cl)cc(Cl)c5)no4)C3)C2)ccn1 [Compound 116, 3-(3,5-dichlorophenyl)-5-(2-(2-methylpyridin-4-yl)-2,6-diazaspiro[3.5]nonan-6-yl)-1,2,4-oxadiazole]	72 nM
CCc1cc(N2CC3(CCCN(c4nc(-c5cc(Cl)cc(Cl)c5)no4)C3)C2)ccn1 [Compound 207]	400 nM
Cc1cc(N2CCC(CN(C)c3nc(-c4cc(Cl)cc(Cl)c4)no3)CC2)ccn1 [Compound 38]	160 nM
Cc1cc(NC(C)C2CCN(c3nc(-c4cc(Cl)cc(Cl)c4)no3)C2)ccn1 (stereo not shown) [Compound 222]	13800 nM
Cc1cc(N2CCC(CCNc3nc(-c4cc(Cl)cc(Cl)c4)no3)CC2)ccn1 [Compound 22]	18600 nM
Cc1cc(NCC23CC2CN(c2nc(-c4cc(Cl)cc(Cl)c4)no2)C3)ccn1 (stereo not shown) [Compound 168]	9000 nM
COc1cc(Cl)cc(-c2nc(N3CCCC4(CCN(c5ccnc(C)c5)CC4)C3)no2)c1 [Compound 86]	280 nM
CC(C)c1cc(N2CC3(CCCN(c4nc(-c5cc(Cl)cc(Cl)c5)no4)C3)C2)ccn1 [Compound 206]	1600 nM
CCN1CCN(c2nc(-c3cc(OC)cc(OC)c3)no2)CC12CCN(c1ccnc(C)c1)CC2 [Compound 242, 3-(3,5-dimethoxyphenyl)-5-(1-ethyl-9-(2-methylpyridin-4-yl)-1,4,9-triazaspiro[5.5]undecan-4-yl)-1,2,4-oxadiazole]	155 nM
Cc1cc(N2CC3(CCCN(c4nc(-c5ccccc5Cl)no4)C3)C2)ccn1 [Compound 148]	≥ 50000 nM

SMILES	IC50
Cc1cc(N2CCC3(CC2)CN(c2nc(-c4cc(OC(C)C)cc(OC(C)C)c4)no2)CCN3C)ccn1 [Compound 97]	1370 nM
Cc1cc(N2CC3(CCCN(c4nc(Cc5ccc(F)cc5)no4)C3)C2)ccn1 [Compound 143]	≥ 50000 nM
COc1cc(OC)cc(-c2nc(N3CCN(C)C4(CCN(c5ccnc(C)c5)CC4)C3)no2)c1 [Compound 90]	118 nM
COc1cc(OC)cc(-c2noc(N3CCO[C@]4(C[C@H]5CC[C@@H](C4)N5c4ccnc(C)c4)C3)n2)c1 [Compound 160]	350 nM
Cc1cc(N2CC3(CCCN(c4cc(-c5ccc(F)c(F)c5)n[nH]4)C3)C2)ccn1 [Compound 131, 6-(3-(3,4-difluorophenyl)-1H-pyrazol-5-yl)-2-(2-methylpyridin-4-yl)-2,6-diazaspiro[3.5]nonane]	23100 nM
COc1cc(OC)cc(-c2noc(N3CCCC4(CN(c5ccnc(C)c5)C4)C3)n2)c1 [Compound 182]	163 nM
Cc1cc(N2CC3CCN(c4nc(-c5cc(Cl)cc(Cl)c5)no4)C3C2)ccn1 (stereo not shown) [Compound 212]	24000 nM
COc1cccc(-c2noc(N3CC4CC4(CNc4ccnc(C)c4)C3)n2)c1 (stereo not shown) [Compound 167]	23000 nM
Clc1cc(Cl)cc(-c2noc(N3CCCC4(CN(c5cccnn5)C4)C3)n2)c1 [Compound 196]	19000 nM
COc1cc(OC)cc(-c2noc(N3CCN(C(=O)N(C)C)C4(CCN(c5ccnc(C)c5)CC4)C3)n2)c1 [Compound 101]	450 nM
COc1cc(N2CC3(CCCN(c4nc(-c5cc(Cl)cc(Cl)c5)no4)C3)C2)ccn1 [Compound 193]	2000 nM
Cc1cc(NC2CCCC(Nc3nc(-c4cc(Cl)cc(Cl)c4)no3)C2)ccn1 (stereo not shown) [Compound 30]	28200 nM
Cc1cc(N2CC(C3CCCCN3c3nc(-c4cc(Cl)cc(Cl)c4)no3)C2)ccn1 (stereo not shown) [Compound 44]	500 nM
CCC1(CNc2nc(-c3cc(Cl)cc(Cl)c3)no2)CCN(c2ccnc(C)c2)CC1 [Compound 32]	2210 nM
Cc1cc(N2CC[C@H](CNc3nc(-c4cc(Cl)cc(Cl)c4)no3)C2)ccn1 [Compound 235]	29500 nM
COc1cc(OC)cc(-c2noc(N3CCN(CC(F)(F)F)C4(CCN(c5ccnc(C)c5)CC4)C3)n2)c1 [Compound 93, 3-(3,5-dimethoxyphenyl)-5-(9-(2-methylpyridin-4-yl)-1-(2,2,2-trifluoroethyl)-1,4,9-triazaspiro[5.5]undecan-4-yl)-1,2,4-oxadiazole]	60 nM
COc1cccc(-c2noc(N3CCC(CCNc4ccnc(C)c4)C3)n2)c1 (stereo not shown) [Compound 171]	4000 nM
Cc1cc(N[C@H]2CC[C@H](Nc3nc(-c4cc(Cl)cc(Cl)c4)no3)C2)ccn1 (racemic) [Compound 50]	16400 nM
